Consider 5 molecules from US11020367B2, “Method for preparing medicine with dicaffeoylquinic acid for treating gout” (Huazhong Agricultural University, priority 2019, dated 2021).

Assay [1] has as its target XOD (xanthine oxidase) (Homo sapiens, UniProt P47989). The experiment in a line: Inhibition of XOD enzyme activity (absorbance at 295 nm, xanthine substrate). Format: biochemical. As to conditions: XOD 0.02 U/mL, xanthine 1 mmol/L, 37° C.; read-out: IC50 in inhibiting XOD. Here is the method:
Forty μL of xanthine solution (1 mmol/L) was added with a spray gun to measure absorbance every 20 s for 15 times.

The subject of assay [2] is THP-1 cells. The experiment in a line: IL-1β secretion in THP-1 cells stimulated by lipopolysaccharide and sodium urate (gout inflammation model, ELISA). Type of assay: cell-based. As to conditions: 100 μmol/L compound pre-incubated 12 h, then lipopolysaccharide 1 μg/mL 2 h and sodium urate 200 μg/mL 4 h; PMA-differentiated THP-1; model group 8747.09 ± 975.97, control group 214.83 ± 11.92. Here is the method: THP-1 suspension cells were inoculated into a 24-well plate. When the density reached 80%, a phorbol ester (PMA) solution with a final concentration of 100 ng/mL was added. After 12 hours of PMA treatment, THP-1 cells differentiated into adherent macrophages. Culture medium was aspirated before washing the cells with PBS, completely replacing the culture medium to culture for 12 h before carrying out a dosing treatment. One hundred μmol/L of the above identified monomer compounds were pre-incubated for 12 h, then lipopolysaccharide with a final concentration of 1 μg/mL was added and acted for 2 h, and finally a sodium urate solution with a final concentration of 200 μg/mL was added and acted for 4 h. […] The model group was pre-incubated without drugs, and cells were stimulated with lipopolysaccharide and sodium urate. Finally, the cell supernatant was collected, centrifuged, and IL-1β content in the supernatant was measured by using an ELISA kit.
(In general: ELISA stands for enzyme-linked immunosorbent assay.)

Marks after values point to notes of the source that are not given here.

XOD (xanthine oxidase), sequence (P47989 whole entry, species assumed): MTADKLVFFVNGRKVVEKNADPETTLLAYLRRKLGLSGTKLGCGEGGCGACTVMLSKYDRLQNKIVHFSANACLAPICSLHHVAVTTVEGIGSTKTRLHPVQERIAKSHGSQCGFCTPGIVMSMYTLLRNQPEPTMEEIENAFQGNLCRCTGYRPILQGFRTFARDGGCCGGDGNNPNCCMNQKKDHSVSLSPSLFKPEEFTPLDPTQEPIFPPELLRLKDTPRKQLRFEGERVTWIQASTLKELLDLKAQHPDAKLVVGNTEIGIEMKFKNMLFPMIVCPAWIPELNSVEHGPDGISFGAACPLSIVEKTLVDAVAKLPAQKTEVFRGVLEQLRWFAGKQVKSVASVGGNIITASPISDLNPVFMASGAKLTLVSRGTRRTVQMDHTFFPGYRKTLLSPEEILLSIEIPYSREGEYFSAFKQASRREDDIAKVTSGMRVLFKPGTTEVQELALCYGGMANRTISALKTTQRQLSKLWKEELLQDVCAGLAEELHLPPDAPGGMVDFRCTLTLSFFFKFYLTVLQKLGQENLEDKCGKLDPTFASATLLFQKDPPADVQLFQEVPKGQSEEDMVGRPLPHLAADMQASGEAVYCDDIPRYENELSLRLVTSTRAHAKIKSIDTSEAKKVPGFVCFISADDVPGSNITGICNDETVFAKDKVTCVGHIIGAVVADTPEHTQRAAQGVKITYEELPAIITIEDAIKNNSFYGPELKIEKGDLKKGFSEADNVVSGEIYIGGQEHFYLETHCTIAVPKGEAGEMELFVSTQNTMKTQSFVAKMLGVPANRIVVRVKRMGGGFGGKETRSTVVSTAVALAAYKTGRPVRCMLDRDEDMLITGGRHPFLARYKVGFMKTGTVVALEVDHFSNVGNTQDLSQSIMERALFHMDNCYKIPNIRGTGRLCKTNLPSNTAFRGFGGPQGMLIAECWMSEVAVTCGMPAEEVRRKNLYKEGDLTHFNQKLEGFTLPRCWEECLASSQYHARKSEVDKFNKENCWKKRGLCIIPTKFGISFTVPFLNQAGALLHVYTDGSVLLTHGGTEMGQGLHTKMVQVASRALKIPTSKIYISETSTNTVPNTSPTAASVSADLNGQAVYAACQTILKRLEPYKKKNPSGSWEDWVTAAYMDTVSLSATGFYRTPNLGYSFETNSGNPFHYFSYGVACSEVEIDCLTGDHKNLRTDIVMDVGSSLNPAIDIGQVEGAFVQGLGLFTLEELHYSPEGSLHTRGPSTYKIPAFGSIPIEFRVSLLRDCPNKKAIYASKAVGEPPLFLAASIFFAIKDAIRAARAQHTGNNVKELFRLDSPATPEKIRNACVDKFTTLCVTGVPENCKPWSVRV

As for `O=C(C=Cc1ccc(O)c(O)c1)OC1CC(OC(=O)C=Cc2ccc(O)c(O)c2)(C(=O)O)CC(O)C1O` (stereo not shown) [1,5-diCQA, 1,5-dicaffeoylquinic acid], the IC50 (in general, the concentration at which inhibition is half-maximal) in assay [1] turned out to be 122 ± 2.56 µM. The “IL-1β in cell supernatant” value in assay [2] is on record as 4176.74 ± 1214.41^b pg/mL.
On to `O=C(C=Cc1ccc(O)c(O)c1)OC1C(O)CC(OC(=O)C=Cc2ccc(O)c(O)c2)(C(=O)O)CC1O` (stereo not shown) [1,4-diCQA, 1,4-dicaffeoylquinic acid], for which the IC50 in assay [1] was determined as 7.36 ± 0.63 µM. For the same molecule, the “IL-1β in cell supernatant” value in assay [2] is listed as 4647.67 ± 607.03^bc pg/mL.
The matching figures for `O=C(C=Cc1ccc(O)c(O)c1)OC1CC(O)(C(=O)O)CC(O)C1OC(=O)C=Cc1ccc(O)c(O)c1` (stereo not shown) [4,5-diCQA, 4,5-dicaffeoylquinic acid]: 233 ± 10.9 µM and 5572.09 ± 632.81^c pg/mL.
As for `O=C(C=Cc1ccc(O)c(O)c1)OC1CC(O)(C(=O)O)CC(OC(=O)C=Cc2ccc(O)c(O)c2)C1O` (stereo not shown) [3,5-diCQA, 3,5-dicaffeoylquinic acid], in assay [1], the IC50 is 289 ± 21.8 µM. In addition, the “IL-1β in cell supernatant” value in assay [2] is on record as 8850.00 ± 190.20^e pg/mL.
The matching figures for `O=C(C=Cc1ccc(O)c(O)c1)OC1CC(O)(C(=O)O)CC(O)C1OC(=O)C=Cc1ccc(O)c(O)c1` (stereo not shown) [3,4-diCQA, 3,4-dicaffeoylquinic acid]: 260 ± 18.4 µM and 7088.57 ± 621.91^d pg/mL.
